The results in this text go back to patent US11623002B2, “ALK polypeptides and methods of use thereof” (Elicio Therapeutics, Inc., priority 2016, dated 2023).

The subject of one experiment is CD4 T-cell. The experiment can be described thus: Intracellular cytokine staining (ICS), CD4 T-cell response to individual ALK polypeptides. The note with it: spleen and lymph node cells of mice immunized with SEQ ID NOs: 1-59 mixed with Freund's adjuvant; re-stimulated with individual ALK polypeptides; FIGS. 2A and 2B. It is filed as cell-based. From the text:
(§1) To identify the immunodominant ALK polypeptides, mice were immunized with ALK polypeptides having the sequences of SEQ ID NOs: 1-59 listed in Table 1A mixed with Freund's adjuvant. Spleens and lymph nodes were then removed from immunized mice and assayed by intracellular cytokine staining (ICS).

Another experiment has as its system CD8 T-cell. The experiment can be described thus: Intracellular cytokine staining (ICS), CD8 T-cell response to individual ALK polypeptides. The settings on record: spleen and lymph node cells of mice immunized with SEQ ID NOs: 1-59 mixed with Freund's adjuvant; re-stimulated with individual ALK polypeptides; FIGS. 2C and 2D. Format: cell-based.
Excerpt: as §1

“Also recorded” adds a separate entry of the source.

In the case of QNIVRCIGVSLQSLP [SEQ ID NO: 17], in the experiment with CD4 T-cell, the “CD4 T-cell responses (ICS)” value is recorded as “strongest CD4 T-cell responses”.

With PVYRIMTQCWQHQPE [SEQ ID NO: 53], in the experiment on CD4 T-cell, the “CD4 T-cell responses (ICS)” value was “strongest CD4 T-cell responses”.

As for GDLKSFLRETRPRPS [SEQ ID NO: 22], the “CD4 T-cell responses (ICS)” value in the experiment with CD4 T-cell is given as “strongest CD4 T-cell responses”.

For LTCPGPGRVAKIGDF [SEQ ID NO: 33], the “CD8 T-cell response (ICS)” value in the experiment with CD8 T-cell was “strongest CD8 T-cell response; also recorded: CD8 T-cell (CD8) stimulating sequence”.

On to LDFLMEALIISKFNH [SEQ ID NO: 14], for which, in the experiment on CD4 T-cell, the “CD4 T-cell responses (ICS)” value was “strongest CD4 T-cell responses”. Further, in the experiment with CD8 T-cell, the “CD8 T-cell response (ICS)” value is listed as “strongest CD8 T-cell response”.

For KNCPGPVYRIMTQCW [SEQ ID NO: 52], the “CD4 T-cell responses (ICS)” value in the experiment with CD4 T-cell is on record as “strongest CD4 T-cell responses”.

With PSPLQVAVRTLPEVC [SEQ ID NO: 10], the “CD4 T-cell responses (ICS)” value with CD4 T-cell was “strongest CD4 T-cell responses”. The “CD8 T-cell response (ICS)” value in the experiment with CD8 T-cell is on record as “strongest CD8 T-cell response”.
